The structures appear in SMILES notation.

Results on 31 compounds are retold here after patent US20230023559A1, “ARYLMETHYLENE HETEROCYCLIC COMPOUNDS AS KV1.3 POTASSIUM SHAKER CHANNEL BLOCKERS” (D. E. Shaw Research, LLC, priority 2019, published 2023).

For experiment [1], the target named is T1, Kv1.3 potassium channel (Homo sapiens, UniProt P22001).
T1 construct: expressed in transfected cells
Description: Kv1.3 potassium channel blocker activity, automated whole-cell patch clamp (Patchliner). In kind it is cell-based. The settings on record: CHO-K1 cells stably expressing Kv1.3; whole cell current inhibition; read-out: Kv1.3_IC50. The gist of the method:
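Peak-current block was recorded on stable Kv1.3 CHO-K1 cells by automated patch clamp, stepping from a −90 mV holding potential to +40 mV for 100 ms at 0.1 Hz with 10 s breaks between trains. Online P/4 leak subtraction, 10 kHz sampling; compound exposure under 10 s per train.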
(Patch clamp records ionic current or voltage across a cell membrane.)

Experiment [2] addresses hERG channel (Homo sapiens, UniProt Q12809). Description: hERG electrophysiology, automated whole-cell patch clamp (Patchliner). A general note: The hERG channel carries a current that helps repolarise heart muscle cells.
Description: CHO-K1 cells stably expressing hERG were grown in Ham's F-12 Medium with Glutamine containing 10% heat-inactivated FBS, 1% Penicillin/Streptomycin, Hygromycin (100 μg/ml) and G418 (100 μg/ml). Cells were grown in culture flasks at 37° C. in a 5% CO2-humidified incubator.
The cells were bathed in an extracellular solution containing 140 mM NaCl, 4 mM KCl, 2 mM CaCl2), 1 mM MgCl2, 5 mM Glucose, 10 mM HEPES; pH adjusted to 7.4 with NaOH; 295-305 mOsm. The internal solution contained 50 mM KCl, 10 mM NaCl, 60 mM KF, 20 mM EGTA, 10 mM HEPES; pH adjusted to 7.2 with KOH; 285 mOsm. All compounds were dissolved in DMSO at 30 mM. Compound stock solutions were freshly diluted with external solution to concentrations of 30 nM, 100 nM, 300 nM, 1 μM, 3 μM, 10 μM, 30 μM and 100 μM. The highest content of DMSO (0.3%) was present in 100 μM.
The voltage protocol (see Table B) was designed to simulate voltage changes during a cardiac action potential with a 300 ms depolarization to +20 mV (analogous to the plateau phase of the cardiac action potential), a repolarization for 300 ms to −50 mV (inducing a tail current) and a final step to the holding potential of −80 mV. The pulse frequency was 0.3 Hz. Control (compound-free) and compound pulse trains for each compound concentration applied contained 70 pulses.
Whole cell current recordings and compound application were enabled by means of an automated patch clamp platform Patchliner (Nanion). EPC 10 patch clamp amplifier (HEKA) along with Patchmaster software (HEKA Elektronik Dr. Schulze GmbH) was used for data acquisition. Data were sampled at 10 kHz without filtering. Increasing compound concentrations were applied consecutively to the same cell without washouts in between.
AUC and PEAK values were obtained with Patchmaster (HEKA Elektronik Dr. Schulze GmbH). To determine IC50 the last single pulse in the pulse train corresponding to a given compound concentration was used. Obtained AUC and PEAK values in the presence of compound were normalized to control values in the absence of compound. Using Origin (OridinLab), IC50 was derived from data fit to Hill equation: Icompound/Icontrol=(100−A)/(1+([compound]/IC50)nH)+A, where IC50 is the concentration at which current inhibition is half-maximal, [compound] is the applied compound concentration, A is the fraction of current that is not blocked and nH is the Hill coefficient.

Chain of hERG channel (Q12809 whole entry): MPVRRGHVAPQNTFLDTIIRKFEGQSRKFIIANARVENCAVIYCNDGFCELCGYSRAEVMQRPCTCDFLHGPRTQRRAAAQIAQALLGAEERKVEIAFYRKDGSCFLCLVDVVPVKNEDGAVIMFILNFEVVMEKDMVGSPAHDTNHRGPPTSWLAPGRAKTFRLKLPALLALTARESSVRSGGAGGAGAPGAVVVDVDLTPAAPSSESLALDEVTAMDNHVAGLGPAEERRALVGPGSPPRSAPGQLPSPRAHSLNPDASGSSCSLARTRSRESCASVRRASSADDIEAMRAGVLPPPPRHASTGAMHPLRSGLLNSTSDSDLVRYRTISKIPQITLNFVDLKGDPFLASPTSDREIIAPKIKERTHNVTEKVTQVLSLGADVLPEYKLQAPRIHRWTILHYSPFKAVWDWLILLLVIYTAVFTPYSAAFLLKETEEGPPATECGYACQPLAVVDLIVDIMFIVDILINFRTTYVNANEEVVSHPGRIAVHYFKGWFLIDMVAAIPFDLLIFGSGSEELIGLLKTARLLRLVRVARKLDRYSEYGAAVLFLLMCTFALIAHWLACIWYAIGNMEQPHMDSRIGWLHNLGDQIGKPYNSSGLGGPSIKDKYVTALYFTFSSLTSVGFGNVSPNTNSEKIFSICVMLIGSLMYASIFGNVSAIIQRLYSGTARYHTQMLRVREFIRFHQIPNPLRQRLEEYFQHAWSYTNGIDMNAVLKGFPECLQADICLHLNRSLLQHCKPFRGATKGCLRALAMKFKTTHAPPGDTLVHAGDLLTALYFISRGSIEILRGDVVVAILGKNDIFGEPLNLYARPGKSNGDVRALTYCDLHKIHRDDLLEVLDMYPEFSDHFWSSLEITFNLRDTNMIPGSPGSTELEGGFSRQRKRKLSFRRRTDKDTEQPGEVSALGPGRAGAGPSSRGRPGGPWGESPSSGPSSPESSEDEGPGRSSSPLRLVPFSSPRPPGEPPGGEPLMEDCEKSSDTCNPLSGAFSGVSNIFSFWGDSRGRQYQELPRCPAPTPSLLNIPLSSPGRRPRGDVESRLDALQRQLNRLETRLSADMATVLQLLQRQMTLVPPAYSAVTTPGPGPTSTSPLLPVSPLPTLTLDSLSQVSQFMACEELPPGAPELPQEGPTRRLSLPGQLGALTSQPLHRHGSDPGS
T1 sequence (P22001 whole entry): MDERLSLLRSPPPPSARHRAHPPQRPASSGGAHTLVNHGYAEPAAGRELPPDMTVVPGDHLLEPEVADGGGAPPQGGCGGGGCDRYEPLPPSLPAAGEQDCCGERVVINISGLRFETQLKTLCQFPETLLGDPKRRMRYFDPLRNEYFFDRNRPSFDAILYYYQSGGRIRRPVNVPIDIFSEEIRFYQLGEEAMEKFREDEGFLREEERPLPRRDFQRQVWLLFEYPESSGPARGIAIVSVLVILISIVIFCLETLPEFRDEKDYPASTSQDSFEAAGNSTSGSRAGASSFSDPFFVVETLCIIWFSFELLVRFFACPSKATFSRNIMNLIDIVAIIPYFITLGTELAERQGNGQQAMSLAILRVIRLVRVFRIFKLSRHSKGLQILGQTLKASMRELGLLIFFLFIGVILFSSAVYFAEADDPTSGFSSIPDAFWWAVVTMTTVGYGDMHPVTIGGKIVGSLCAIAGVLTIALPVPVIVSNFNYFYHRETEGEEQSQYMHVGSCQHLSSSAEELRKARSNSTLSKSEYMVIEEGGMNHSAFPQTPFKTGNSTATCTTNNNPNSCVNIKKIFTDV

`N[C@@H](c1cc(Cl)c(Cl)cc1O)C1CCN(C(=O)NCCO)CC1` [Compound 209, 4-[(R)-amino(4,5-dichloro-2-hydroxyphenyl)methyl]-N-(2-hydroxyethyl)piperidine-1-carboxamide Trifluoroacetic Acid]: the IC50 (usually the concentration at which inhibition is half-maximal) in experiment [1] was less than 0.5 µM; in experiment [2] it was greater than 30 µM.

As for `Cc1cc(O)c([C@H](N)C2CCN(C(=O)c3ccc(=O)n(C)c3)CC2)cc1Cl` [Compound 239, 5-[4-[(R)-amino (5-chloro-2-hydroxy-4-methylphenyl)methyl]piperidine-1-carbonyl]-1-methylpyridin-2(1H)-one trifluoroacetic acid], the figures for the IC50 in experiment [1] and in experiment [2] were less than 0.5 µM and greater than 30 µM, respectively.

For the compound `Cc1cc(O)c([C@H](N)C2CCN(C(=O)c3ccc(CO)nc3)CC2)cc1Cl` [Compound 248, 2-[(R)-amino([1-[6-(hydroxymethyl)pyridine-3-carbonyl]piperidin-4-yl])methyl]-4-chloro-5-methylphenol], the results for the half-inhibitory concentration (IC50) in experiment [1] and in experiment [2] were less than 0.5 µM and greater than 30 µM, respectively.

Turning to `N[C@@H](c1cc(Cl)c(Cl)cc1O)C1CCN(C(=O)[C@H]2CCNC2)CC1` (single isomer, unassigned) [Compound 85], the half-inhibitory concentration (IC50) in experiment [1] was less than 0.5 µM; in experiment [2], greater than 30 µM.

Regarding `NC(c1cc(Cl)c(Cl)cc1O)C1(F)CCNCC1` (centres unmarked) [Compound 59, 2-[amino(4-fluoropiperidin-4-yl)methyl]-4,5-dichlorophenol Trifluoroacetic Acid], the concentration for half-maximal inhibition (IC50) is less than 10 µM in experiment [1] and less than 30 µM in experiment [2].

For the compound `N[C@@H](c1cc(Cl)c(Cl)cc1O)C1CCN(C(=O)[C@H]2COCCN2)CC1` [Compound 194, (4-((R)-amino(4,5-dichloro-2-hydroxyphenyl)methyl)piperidin-1-yl)((R)-morpholin-3-yl)methanone], the figures for the IC50 in experiment [1] and in experiment [2] were less than 0.5 µM and greater than 30 µM, respectively.

With `N[C@@H](c1cc(Cl)c(Cl)cc1O)C1CCN(C(=O)C2COCCN2)CC1` (stereo partly drawn) [Compound 144, 2-[(R)-amino[1-(morpholine-3-carbonyl)piperidin-4-yl]methyl]-4,5-dichlorophenol trifluoroacetic acid], the figures for the IC50 in experiment [1] and in experiment [2] were less than 10 µM and greater than 30 µM, respectively.

As for `N[C@@H](c1cc(Cl)c(Cl)cc1O)C1CCN(C(=O)C2(O)COC2)CC1` [Compound 143, 3-[4-[(R)-amino(4,5-dichloro-2-hydroxyphenyl)methyl]piperidine-1-carbonyl]oxetan-3-ol], the IC50 in experiment [1] is less than 10 µM; in experiment [2], greater than 30 µM.

Consider `O=C([C@@H]1CCNC1)N1CCC(C(O)c2cc(Cl)c(Cl)cc2O)CC1` (stereo partly drawn) [Compound 101, 4,5-dichloro-2-[hydroxy([1-[(3R)-pyrrolidine-3-carbonyl]piperidin-4-yl])methyl]phenol], for which the IC50 is less than 0.5 µM in experiment [1] and greater than 30 µM in experiment [2].

On to `N[C@@H](c1cc(Cl)c(Cl)cc1O)C1CCN(C(=O)C2CC3(CC(O)C3)C2)CC1` (stereo partly drawn) [Compound 320, 6-[4-[(R)-amino(4,5-dichloro-2-hydroxyphenyl)methyl]piperidine-1-carbonyl]spiro [3.3]heptan-2-ol trifluoroacetic acid], for which the values for the IC50 in experiment [1] and in experiment [2] were less than 10 µM and less than 30 µM, respectively.

With `N[C@@H](c1cc(Cl)c(Cl)cc1O)C1CCN(C(=O)[C@@H]2CNCCO2)CC1` [Compound 99, (4-((R)-amino(4,5-dichloro-2-hydroxyphenyl)methyl)piperidin-1-yl)((S)-morpholin-2-yl)methanone], the 50% inhibitory concentration (IC50) in experiment [1] was less than 0.5 µM; in experiment [2], greater than 30 µM.

Turning to `N[C@@H](c1c(O)cc(Cl)c(Cl)c1Cl)C1CCNCC1` (single isomer, unassigned) [Compound 61, Trifluoroacetic Acid], the IC50 was less than 10 µM in experiment [1] and greater than 30 µM in experiment [2].

As to `CN1CCC(C(N)c2cc(Cl)c(Cl)cc2O)CC1` (centres unmarked) [Compound 21, 2-(amino(1-methylpiperidin-4-yl)methyl)-4,5-dichlorophenol], the concentration for half-maximal inhibition (IC50) was less than 10 µM in experiment [1] and less than 30 µM in experiment [2].

On to `CC1(C(=O)N2CCC([C@@H](N)c3cc(Cl)c(Cl)cc3O)CC2)CNC1` [Compound 109, (R)-(4-(amino(4,5-dichloro-2-hydroxyphenyl)methyl)piperidin-1-yl)(3-methylazetidin-3-yl)methanone], for which the IC50 in experiment [1] is less than 0.5 µM; in experiment [2] it was greater than 30 µM.

Turning to `CC(C)(O)CN1CCC(C(N)c2cc(Cl)c(Cl)cc2O)CC1` (centres unmarked) [Compound 56, 2-[amino[1-(2-hydroxy-2-methylpropyl)piperidin-4-yl]methyl]-4,5-dichlorophenol Trifluoroacetic Acid], the figures for the 50% inhibitory concentration (IC50) in experiment [1] and in experiment [2] were less than 10 µM and less than 30 µM, respectively.

For the compound `N[C@@H](c1cc(Cl)c(Cl)cc1O)C1CCN(S(=O)(=O)[C@H]2CCNC2)CC1` (single isomer, unassigned; isomer 2) [Compound 118], the figures for the IC50 in experiment [1] and in experiment [2] were less than 0.5 µM and greater than 30 µM, respectively.

Consider `N[C@@H](c1cc(Cl)c(Cl)cc1O)C1CCN(C(=O)c2ccn[nH]2)CC1` [Compound 136, 2-[(R)-amino[1-(1H-pyrazole-3-carbonyl)piperidin-4-yl]methyl]-4,5-dichlorophenol trifluoroacetic acid], for which the IC50 in experiment [1] was less than 10 µM; in experiment [2], greater than 30 µM.

Consider `N[C@@H](c1cc(Cl)c(Cl)cc1O)C1CCN(C(=O)[C@H]2COCCO2)CC1` [Compound 169, 2-[(R)-amino([1-[(2R)-1,4-dioxane-2-carbonyl]piperidin-4-yl])methyl]-4,5-dichlorophenol trifluoroacetic acid], for which the IC50 was less than 10 µM in experiment [1] and less than 30 µM in experiment [2].

For `NC(=O)N1CCC(C(N)c2cc(Cl)c(Cl)cc2O)CC1` (centres unmarked) [Compound 53, 4-[amino(4,5-dichloro-2-hydroxyphenyl)methyl]piperidine-1-carboxamide], the values for the IC50 in experiment [1] and in experiment [2] were less than 0.5 µM and greater than 30 µM, respectively.

Take `NC(c1cc(Cl)c(Cl)cc1O)C1CCN(C(=O)c2ccccc2)CC1` (centres unmarked) [Compound 68, 2-[amino(1-benzoylpiperidin-4-yl)methyl]-4,5-dichlorophenol Trifluoroacetic Acid]: the IC50 in experiment [1] was less than 10 µM; in experiment [2], less than 30 µM.

With `N[C@@H](c1cc(Cl)c(Cl)cc1O)C1CCN(C(=O)Cc2cn[nH]c2)CC1` [Compound 162, 1-[4-[(R)-amino(4,5-dichloro-2-hydroxyphenyl)methyl]piperidin-1-yl]-2-(1H-pyrazol-4-yl)ethan-1-one trifluoroacetic acid], the IC50 in experiment [1] is less than 0.5 µM; in experiment [2], greater than 30 µM.

As for `N[C@@H](c1cc(Cl)c(Cl)cc1O)C1CCN(c2cc[nH]c(=O)c2)CC1` [Compound 180, 4-[4-[(R)-amino(4,5-dichloro-2-hydroxyphenyl)methyl]piperidin-1-yl]-1,2-dihydropyridin-2-one Trifluoroacetic Acid], the figures for the half-inhibitory concentration (IC50) in experiment [1] and in experiment [2] were less than 0.5 µM and greater than 30 µM, respectively.

In the case of `N[C@@H](c1cc(Cl)c(Cl)cc1O)C1CCN(C(=O)[C@@H]2OCC[C@@H]2O)CC1` [Compound 260, (2R,3S)-2-[4-[(R)-amino(4,5-dichloro-2-hydroxyphenyl)methyl]piperidine-1-carbonyl]oxolan-3-ol Trifluoroacetic Acid], the IC50 was less than 0.5 µM in experiment [1] and greater than 30 µM in experiment [2].

Take `Oc1cc(Cl)c(Cl)cc1[C@H](O)C1CCNCC1` (single isomer, unassigned) [Compound 7]: the figures for the 50% inhibitory concentration (IC50) in experiment [1] and in experiment [2] were less than 10 µM and greater than 30 µM, respectively.

As to `N[C@@H](c1cc(Cl)c(Cl)cc1O)C1CCN(C(=O)c2cnc(=O)[nH]c2)CC1` [Compound 277, 5-[4-[(R)-amino(4,5-dichloro-2-hydroxyphenyl)methyl]piperidine-1-carbonyl]-1H-pyrimidin-2-one trifluoroacetic acid], the half-maximal inhibitory concentration (IC50) was less than 0.5 µM in experiment [1] and greater than 30 µM in experiment [2].

Turning to `Cc1cc([C@H](N)C2CCN(C(=O)[C@H](O)CO)CC2)c(O)cc1Cl` [Compound 198, (2R)-1-[4-[(R)-amino(4-chloro-2-hydroxy-5-methylphenyl)methyl]piperidin-1-yl]-2,3-dihydroxypropan-1-one], the IC50 in experiment [1] was less than 10 µM; in experiment [2] it was greater than 30 µM.

As to `C[C@H](N)C(=O)N1CCC(C(N)c2cc(Cl)c(Cl)cc2O)CC1` (stereo partly drawn) [Compound 50, (2S)-2-amino-1-(4-(amino(4,5-dichloro-2-hydroxyphenyl)methyl)piperidin-1-yl)propan-1-one trifluoroacetic acid], the half-inhibitory concentration (IC50) is less than 0.5 µM in experiment [1] and greater than 30 µM in experiment [2].

Take `C[C@@H](N)C(=O)N1CCC(C(N)c2cc(Cl)c(Cl)cc2O)CC1` (stereo partly drawn) [Compound 54, (2R)-2-amino-1-(4-(amino(4,5-dichloro-2-hydroxyphenyl)methyl)piperidin-1-yl)propan-1-one Trifluoroacetic Acid]: the concentration for half-maximal inhibition (IC50) in experiment [1] is less than 0.5 µM; in experiment [2] it was greater than 30 µM.

Take `Cc1cc(O)c([C@H](N)C2CCN(C(=O)c3ccc(=O)[nH]c3)CC2)c(F)c1Cl` [Compound 272, 5-[4-[(R)-amino(3-chloro-2-fluoro-6-hydroxy-4-methylphenyl)methyl]piperidine-1-carbonyl]-1H-pyridin-2-one Trifluoroacetic Acid]: the half-maximal inhibitory concentration (IC50) is less than 0.5 µM in experiment [1] and greater than 30 µM in experiment [2].

Regarding `N[C@@H](c1cc(Cl)c(Cl)cc1O)C1CCN(C(=O)c2cc(=O)[nH]cn2)CC1` [Compound 176, (R)-(4-(amino (4,5-dichloro-2-hydroxyphenyl)methyl)piperidin-1-yl)(6-hydroxy-pyrimidin-4-yl)methanone trifluoroacetic acid], the IC50 in experiment [1] is less than 10 µM; in experiment [2] it was greater than 30 µM.

Take `NC(c1cc(Cl)c(Cl)cc1O)C1CCN(CC2CC2)CC1` (centres unmarked) [Compound 51, 2-[amino[1-(cyclopropylmethyl)piperidin-4-yl]methyl]-4,5-dichlorophenol Trifluoroacetic Acid]: the values for the IC50 in experiment [1] and in experiment [2] were less than 10 µM and greater than 30 µM, respectively.
